{"source": "PubChem BioAssay AID1963825", "about": "(Molecular Pharmacology Branch, DTP, NCI, 2024)", "assay": "Anticancer human tumor 997537-175-T-J1-PDC patient-derived colon adenocarcinoma cell line growth inhibition [POLQ]", "settings": "997537-175-T-J1-PDC complex spheroid viability, combination with POLQ inhibitors; for viability, T/C: stronger effect = lower value", "method_in_brief": "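Growth inhibition in 3D: complex spheroids (tumor PDC, HUVEC, MSC) treated with POLQ inhibitor combinations; where Cmax unknown, highest tested concentration 10 microM, except SN-38 at 1 microM.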", "note": "“And” between values parts separate entries of the source, which are not always exact repeats. Equal entries are not always repeated.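 Note: luminescence signal used as a surrogate for viable cells; spheroids exposed to drugs for seven days before readout.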", "data": [{"smiles": "Nc1ccc(C#CCN(C(=O)Cc2ncc(C(F)(F)F)cc2C(F)(F)F)c2ccc(F)cc2)nn1", "values": [{"measurement": "viability, T/C", "setting": "compound 0.0316 µM", "result": "99.2% [middle of 13 runs]"}, {"measurement": "viability, T/C", "setting": "compound 0.1 µM", "result": "97.2% [middle of 13 runs]"}, {"measurement": "viability, T/C", "setting": "compound 0.316 µM", "result": "99.4% [middle of 13 runs]"}, {"measurement": "viability, T/C", "setting": "compound 3.16 µM", "result": "98.6% [middle of 13 runs]"}, {"measurement": "viability, T/C", "setting": "compound 10 µM", "result": "101% [middle of 13 runs]"}, {"measurement": "IC50", "setting": "compound alone, run of 12/05/2023", "result": "> 10000", "unit": "nM"}]}, {"smiles": "CC1COCCN1c1cc(C2(O)CC3CCC(C2)O3)c2cnn(-c3ccn[nH]3)c2n1", "note": "(configuration not stated)", "values": [{"measurement": "viability, T/C", "setting": "compound 0.0316 µM", "result": "80.8% and 88.2% and 99.8%"}, {"measurement": "viability, T/C", "setting": "compound 0.1 µM", "result": "88.8% and 81.9% and 65.3%"}, {"measurement": "viability, T/C", "setting": "compound 0.316 µM", "result": "57.4% and 42.1% and 58.8%"}, {"measurement": "viability, T/C", "setting": "compound 1 µM", "result": "49% and 58.5% and 56.2%"}, {"measurement": "viability, T/C", "setting": "compound 3.16 µM", "result": "61.2% and 67.5% and 61.5%"}, {"measurement": "viability, T/C", "setting": "compound 10 µM", "result": "62.1% and 47.6% and 48.3%"}, {"measurement": "IC50", "setting": "curve of compound", "result": "> 10000", "unit": "nM"}]}, {"smiles": "COc1cc(C2c3cc4c(cc3C(OC3OC5COC(C)OC5C(O)C3O)C3COC(=O)C23)OCO4)cc(OC)c1O", "note": "(configuration not stated)", "values": [{"measurement": "viability, T/C", "setting": "compound 0.0316 µM", "result": "81.2% and 92.1% and 89.8%"}, {"measurement": "viability, T/C", "setting": "compound 0.1 µM", "result": "90% and 102% and 100%"}, {"measurement": "viability, T/C", "setting": "compound 0.316 µM", "result": "86.5% and 100% and 114%"}, {"measurement": "viability, T/C", "setting": "compound 1 µM", "result": "102% and 92.9% and 99.7%"}, {"measurement": "viability, T/C", "setting": "compound 3.16 µM", "result": "92.7% and 81% and 88.9%"}, {"measurement": "viability, T/C", "setting": "compound 10 µM", "result": "76.3% and 68.8% and 51.7%"}, {"measurement": "IC50", "setting": "curve of compound", "result": "> 10000", "unit": "nM"}]}, {"smiles": "CC(=O)O[C@H]1C(=O)[C@@]2(C)[C@H]([C@H](OC(=O)c3ccccc3)[C@]3(O)C[C@H](OC(=O)[C@H](O)[C@@H](NC(=O)c4ccccc4)c4ccccc4)C(C)=C1C3(C)C)[C@]1(OC(C)=O)CO[C@@H]1C[C@@H]2O", "note": "+ Nc1ccc(C#CCN(C(=O)Cc2ncc(C(F)(F)F)cc2C(F)(F)F)c2ccc(F)cc2)nn1", "values": [{"measurement": "IC50", "setting": "curve of first compound, second compound 0.0316 µM", "result": 27, "unit": "nM"}, {"measurement": "IC50", "setting": "curve of first compound, second compound 0.1 µM", "result": 50.1, "unit": "nM"}, {"measurement": "IC50", "setting": "curve of first compound, second compound 0.316 µM", "result": 16.8, "unit": "nM"}, {"measurement": "IC50", "setting": "curve of first compound, second compound 1 µM", "result": 14.8, "unit": "nM"}, {"measurement": "IC50", "setting": "curve of first compound, second compound 3.16 µM", "result": 32.5, "unit": "nM"}, {"measurement": "IC50", "setting": "curve of first compound, second compound 10 µM", "result": 18.5, "unit": "nM"}, {"measurement": "viability, T/C", "setting": "second compound 0.0316 µM, first compound 0.00949 µM", "result": 50.5, "unit": "%"}, {"measurement": "viability, T/C", "setting": "second compound 0.0316 µM, first compound 0.03 µM", "result": 57.6, "unit": "%"}, {"measurement": "viability, T/C", "setting": "second compound 0.0316 µM, first compound 0.0949 µM", "result": 32.5, "unit": "%"}, {"measurement": "viability, T/C", "setting": "second compound 0.0316 µM, first compound 0.3 µM", "result": 55.7, "unit": "%"}, {"measurement": "viability, T/C", "setting": "second compound 0.0316 µM, first compound 0.949 µM", "result": 33.8, "unit": "%"}, {"measurement": "viability, T/C", "setting": "second compound 0.0316 µM, first compound 3 µM", "result": 34.3, "unit": "%"}, {"measurement": "viability, T/C", "setting": "second compound 0.1 µM, first compound 0.00949 µM", "result": 70, "unit": "%"}, {"measurement": "viability, T/C", "setting": "second compound 0.1 µM, first compound 0.03 µM", "result": 28.4, "unit": "%"}, {"measurement": "viability, T/C", "setting": "second compound 0.1 µM, first compound 0.0949 µM", "result": 58, "unit": "%"}, {"measurement": "viability, T/C", "setting": "second compound 0.1 µM, first compound 0.3 µM", "result": 46.9, "unit": "%"}, {"measurement": "viability, T/C", "setting": "second compound 0.1 µM, first compound 0.949 µM", "result": 23.3, "unit": "%"}, {"measurement": "viability, T/C", "setting": "second compound 0.1 µM, first compound 3 µM", "result": 23.3, "unit": "%"}, {"measurement": "viability, T/C", "setting": "second compound 0.316 µM, first compound 0.00949 µM", "result": 69.7, "unit": "%"}, {"measurement": "viability, T/C", "setting": "second compound 0.316 µM, first compound 0.03 µM", "result": 27.3, "unit": "%"}, {"measurement": "viability, T/C", "setting": "second compound 0.316 µM, first compound 0.0949 µM", "result": 27.9, "unit": "%"}, {"measurement": "viability, T/C", "setting": "second compound 0.316 µM, first compound 0.3 µM", "result": 16.8, "unit": "%"}, {"measurement": "viability, T/C", "setting": "second compound 0.316 µM, first compound 0.949 µM", "result": 41.3, "unit": "%"}, {"measurement": "viability, T/C", "setting": "second compound 0.316 µM, first compound 3 µM", "result": 37.1, "unit": "%"}, {"measurement": "viability, T/C", "setting": "second compound 1 µM, first compound 0.00949 µM", "result": 55.2, "unit": "%"}, {"measurement": "viability, T/C", "setting": "second compound 1 µM, first compound 0.03 µM", "result": 44.6, "unit": "%"}, {"measurement": "viability, T/C", "setting": "second compound 1 µM, first compound 0.0949 µM", "result": 31.6, "unit": "%"}, {"measurement": "viability, T/C", "setting": "second compound 1 µM, first compound 0.3 µM", "result": 25.8, "unit": "%"}, {"measurement": "viability, T/C", "setting": "second compound 1 µM, first compound 0.949 µM", "result": 30.1, "unit": "%"}, {"measurement": "viability, T/C", "setting": "second compound 1 µM, first compound 3 µM", "result": 38.3, "unit": "%"}, {"measurement": "viability, T/C", "setting": "second compound 3.16 µM, first compound 0.00949 µM", "result": 54.5, "unit": "%"}, {"measurement": "viability, T/C", "setting": "second compound 3.16 µM, first compound 0.03 µM", "result": 48.2, "unit": "%"}, {"measurement": "viability, T/C", "setting": "second compound 3.16 µM, first compound 0.0949 µM", "result": 44.2, "unit": "%"}, {"measurement": "viability, T/C", "setting": "second compound 3.16 µM, first compound 0.3 µM", "result": 36, "unit": "%"}, {"measurement": "viability, T/C", "setting": "second compound 3.16 µM, first compound 0.949 µM", "result": 24.6, "unit": "%"}, {"measurement": "viability, T/C", "setting": "second compound 3.16 µM, first compound 3 µM", "result": 31, "unit": "%"}, {"measurement": "viability, T/C", "setting": "second compound 10 µM, first compound 0.00949 µM", "result": 68.6, "unit": "%"}, {"measurement": "viability, T/C", "setting": "second compound 10 µM, first compound 0.03 µM", "result": 35.8, "unit": "%"}, {"measurement": "viability, T/C", "setting": "second compound 10 µM, first compound 0.0949 µM", "result": 37.6, "unit": "%"}, {"measurement": "viability, T/C", "setting": "second compound 10 µM, first compound 0.3 µM", "result": 33.4, "unit": "%"}, {"measurement": "viability, T/C", "setting": "second compound 10 µM, first compound 0.949 µM", "result": 38.5, "unit": "%"}, {"measurement": "viability, T/C", "setting": "second compound 10 µM, first compound 3 µM", "result": 23.9, "unit": "%"}]}]}
